Data taken from patent US9988635B2, “Modulation of growth hormone receptor expression and insulin-like growth factor expression” (Antisense Therapeutics Limited, priority 2003, dated 2018).
In the oligonucleotide strings, read from the 5' end, every base follows the letter of its sugar. An asterisk marks phosphorothioate; unmarked linkages are phosphodiester. Other units and linkages are bracketed, terminal groups are in braces. A string of capitals states the bases alone. e = 2'-O-(2-methoxyethyl) (MOE); [5mC] = 5-methylcytosine; d = 2'-deoxy (DNA)

What follows are substances tested on human growth hormone receptor mRNA (assay: Inhibition of human growth hormone receptor mRNA levels in MCF7 cells, quantitative real-time PCR). Conditions: averages from three experiments.
Format: cell-based
Set-up: concentration or dose not given beside the values
Description: The human breast carcinoma cell line MCF-7 was obtained from the American Type Culture Collection (Manassas, Va.). MCF-7 cells were routinely cultured in DMEM low glucose (Gibco/Life Technologies, Gaithersburg, Md.) supplemented with 10% fetal calf serum (Gibco/Life Technologies, Gaithersburg, Md.). Cells were routinely passaged by trypsinization and dilution when they reached 90% confluence. Cells were seeded into 96-well plates (Falcon-Primaria #3872) at a density of 7000 cells/well for use in RT-PCR analysis.
When cells reached 65-75% confluency, they were treated with oligonucleotide. For cells grown in 96-well plates, wells were washed once with 100 μL OPTI-MEM™-1 reduced-serum medium (Invitrogen Corporation, Carlsbad, Calif.) and then treated with 130 μL of OPTI-MEM™-1 containing 3.75 μg/mL LIPOFECTIN™ (Invitrogen Corporation, Carlsbad, Calif.) and the desired concentration of oligonucleotide. Cells are treated and data are obtained in triplicate. After 4-7 hours of treatment at 37° C., the medium was replaced with fresh medium. Cells were harvested 16-24 hours after oligonucleotide treatment.
Total RNA was isolated using an RNEASY 96™ kit and buffers purchased from Qiagen Inc. (Valencia, Calif.) following the manufacturer's recommended procedures. Briefly, for cells grown on 96-well plates, growth medium was removed from the cells and each well was washed with 200 μL cold PBS. 150 μL Buffer RLT was added to each well and the plate vigorously agitated for 20 seconds. 150 μL of 70% ethanol was then added to each well and the contents mixed by pipetting three times up and down. The samples were then transferred to the RNEASY 96™ well plate attached to a QIAVAC™ manifold fitted with a waste collection tray and attached to a vacuum source. Vacuum was applied for 1 minute. 500 μL of Buffer RW1 was added to each well of the RNEASY 96™ plate and incubated for 15 minutes and the vacuum was again applied for 1 minute. An additional 500 μL of Buffer RW1 was added to each well of the RNEASY 96™ plate and the vacuum was applied for 2 minutes. 1 mL of Buffer RPE was then added to each well of the RNEASY 96™ plate and the vacuum applied for a period of 90 seconds. The Buffer RPE wash was then repeated and the vacuum was applied for an additional 3 minutes. The plate was then removed from the QIAVAC™ manifold and blotted dry on paper towels. The plate was then re-attached to the QIAVAC™ manifold fitted with a collection tube rack containing 1.2 mL collection tubes. RNA was then eluted by pipetting 140 μL of RNAse free water into each well, incubating 1 minute, and then applying the vacuum for 3 minutes.
Quantitation of growth hormone receptor mRNA levels was accomplished by real-time quantitative PCR using the ABI PRISM™ 7600, 7700, or 7900 Sequence Detection System (PE-Applied Biosystems, Foster City, Calif.) according to manufacturer's instructions. This is a closed-tube, non-gel-based, fluorescence detection system which allows high-throughput quantitation of polymerase chain reaction (PCR) products in real-time. As opposed to standard PCR in which amplification products are quantitated after the PCR is completed, products in real-time quantitative PCR are quantitated as they accumulate. This is accomplished by including in the PCR reaction an oligonucleotide probe that anneals specifically between the forward and reverse PCR primers, and contains two fluorescent dyes. A reporter dye (e.g., FAM or JOE, obtained from either PE-Applied Biosystems, Foster City, Calif., Operon Technologies Inc., Alameda, Calif. or Integrated DNA Technologies Inc., Coralville, Iowa) is attached to the 5′ end of the probe and a quencher dye (e.g., TAMRA, obtained from either PE-Applied Biosystems, Foster City, Calif., Operon Technologies Inc., Alameda, Calif. or Integrated DNA Technologies Inc., Coralville, Iowa) is attached to the 3′ end of the probe. When the probe and dyes are intact, reporter dye emission is quenched by the proximity of the 3′ quencher dye. […]
In the case of “227464 (antisense e[5mC]*e[5mC]*eT*eT*eT*dA*dA*dT*d[5mC]*dT*dT*dT*dG*dG*dA*eA*e[5mC]*eT*eG*eG) [compound 227464]”, the “% INHIB of human growth hormone receptor mRNA levels” value (from here on “% INHIB”) is reported as 58%. “227480 (antisense eA*eT*eG*eT*eA*dA*dA*dT*dG*dT*d[5mC]*d[5mC]*dT*d[5mC]*dT*eT*eG*eG*eT*eT) [compound 227480]” was tested, and the “% INHIB” value was 66%. “272316 (antisense eA*eA*e[5mC]*eT*e[5mC]*dG*d[5mC]*d[5mC]*dA*dT*dA*dA*dT*dT*dT*e[5mC]*e[5mC]*eA*eG*eA) [compound 272316]” was tested, and the “% INHIB” value was 64%. For “227483 (antisense eA*eG*eG*e[5mC]*eT*dT*dT*d[5mC]*dT*dG*dT*dG*dG*dT*dG*eA*eT*eG*eT*eA) [compound 227483]”, the “% INHIB” value was 75%. “272308 (antisense eG*e[5mC]*eT*eG*eT*dA*dT*dG*dG*dG*dT*d[5mC]*d[5mC]*dT*dA*eG*eG*eT*eT*e[5mC]) [compound 272308]” was tested, and the “% INHIB” value was 57%. With “272328 (antisense eG*eG*e[5mC]*eA*eT*dT*dG*dT*d[5mC]*d[5mC]*dA*dT*dA*dA*dG*eG*eA*eA*eG*eT) [compound 272328]” the “% INHIB” value was 85%. In the case of “272352 (antisense e[5mC]*e[5mC]*eA*eA*eA*dA*dT*dG*dA*d[5mC]*dA*dT*dT*d[5mC]*dT*eG*eA*eG*eA*e[5mC]) [compound 272352]”, the “% INHIB” value is reported as 77%. For “272329 (antisense eA*e[5mC]*eT*eT*eT*dT*dT*dG*dG*d[5mC]*dA*dT*d[5mC]*dT*dG*e[5mC]*e[5mC]*eT*e[5mC]*eA) [compound 272329]”, the “% INHIB” value was 63%. In the case of “272331 (antisense e[5mC]*eA*eG*eT*e[5mC]*dG*d[5mC]*dA*dT*dT*dG*dA*dG*dT*dA*eT*eG*eA*eG*eG) [compound 272331]”, the “% INHIB” value is reported as 67%. For “272337 (antisense eA*eA*eA*e[5mC]*eA*dT*dA*dG*d[5mC]*d[5mC]*dA*dT*dT*d[5mC]*dA*eA*eT*eG*e[5mC]*eT) [compound 272337]”, the “% INHIB” value was 39%. “227469 (antisense e[5mC]*eT*eT*eA*eG*dA*dA*dG*dT*d[5mC]*dT*dG*dT*d[5mC]*dT*eG*eT*eG*eT*e[5mC]) [compound 227469]” was tested, and the “% INHIB” value was 63%. “272319 (antisense eA*eT*eT*eT*eT*d[5mC]*d[5mC]*dT*dT*d[5mC]*d[5mC]*dT*dT*dG*dA*eG*eG*eA*eG*eA) [compound 272319]” was tested, and the “% INHIB” value was 67%. For “272358 (antisense eT*e[5mC]*eT*e[5mC]*e[5mC]*dA*dG*dA*dT*dA*dG*dA*dA*dT*d[5mC]*eT*eA*eA*eA*e[5mC]) [compound 272358]”, the “% INHIB” value was 53%. “272344 (antisense eA*e[5mC]*eA*e[5mC]*eT*d[5mC]*dA*dA*dT*dT*d[5mC]*dT*dA*dG*d[5mC]*eT*eT*eT*eT*e[5mC]) [compound 272344]” was tested, and the “% INHIB” value was 60%. With “272355 (antisense eT*eT*eG*eA*eG*dT*dG*dT*dT*d[5mC]*d[5mC]*dT*dA*dA*dA*eA*eT*eG*eA*eA) [compound 272355]” the “% INHIB” value was 24%. “272343 (antisense eA*eA*eT*eG*e[5mC]*dT*d[5mC]*dT*d[5mC]*dA*dA*dG*dA*dA*dT*eG*eA*eT*eG*eT) [compound 272343]” was tested, and the “% INHIB” value was 48%. In the case of “272360 (antisense eT*eA*eT*eT*eA*dG*dT*dT*dA*d[5mC]*d[5mC]*dT*dT*dG*dA*eG*eG*eA*eG*eA) [compound 272360]”, the “% INHIB” value is reported as 0%. With “272330 (antisense eG*eA*eT*eG*e[5mC]*dA*d[5mC]*dT*dT*dT*dT*dT*dG*dG*d[5mC]*eA*eT*e[5mC]*eT*eG) [compound 272330]” the “% INHIB” value was 47%. With “272346 (antisense e[5mC]*eT*e[5mC]*eT*eT*dG*dG*dA*dG*dA*dA*dA*dA*d[5mC]*d[5mC]*eA*eT*eA*eG*e[5mC]) [compound 272346]” the “% INHIB” value was 67%. “272335 (antisense eA*eA*eA*eT*eA*d[5mC]*dG*dT*dA*dG*d[5mC]*dT*d[5mC]*dT*dT*eG*eG*eG*eA*eA) [compound 272335]” was tested, and the “% INHIB” value was 47%. With “227502 (antisense eG*eA*eT*eT*eG*dA*dG*dG*dT*dA*dT*dT*dT*dA*dG*e[5mC]*eT*eA*eT*eT) [compound 227502]” the “% INHIB” value was 56%. In the case of “272356 (antisense eA*eT*eG*eG*eA*dG*dG*d[5mC]*dT*dG*dG*dA*dG*dG*dT*eT*e[5mC]*eA*eA*eA) [compound 272356]”, the “% INHIB” value is reported as 63%. For “227490 (antisense eG*e[5mC]*eA*eT*eG*dA*dT*dT*dT*dT*dG*dT*dT*d[5mC]*dA*eG*eT*eT*eG*eG) [compound 227490]”, the “% INHIB” value was 67%. “272313 (antisense eA*eT*eT*eG*e[5mC]*dG*dT*dG*dG*dT*dG*d[5mC]*dT*dT*d[5mC]*e[5mC]*e[5mC]*eA*eT*e[5mC]) [compound 272313]” was tested, and the “% INHIB” value was 77%. With “272323 (antisense eT*eG*eT*eG*eT*d[5mC]*dT*dG*dA*dT*dT*d[5mC]*d[5mC]*dT*d[5mC]*eA*eG*eT*e[5mC]*eT) [compound 272323]” the “% INHIB” value was 67%. For “272349 (antisense eA*eG*eT*e[5mC]*eT*dT*d[5mC]*d[5mC]*dA*dA*dA*d[5mC]*dA*d[5mC]*dA*e[5mC]*eA*eG*e[5mC]*eT) [compound 272349]”, the “% INHIB” value was 68%. In the case of “227488 (antisense eA*eG*eT*eT*eG*dG*dT*d[5mC]*dT*dG*dT*dG*d[5mC]*dT*d[5mC]*eA*e[5mC]*eA*eT*eA) [compound 227488]”, the “% INHIB” value is reported as 86%. With “272305 (antisense eT*eT*eG*eT*e[5mC]*dT*dT*dT*dA*dG*dG*d[5mC]*d[5mC]*dT*dG*eG*eA*eT*eT*eA) [compound 272305]” the “% INHIB” value was 68%. In the case of “272341 (antisense eG*eA*eG*eG*e[5mC]*dT*dA*dT*dA*dG*dA*dT*d[5mC]*dT*dT*eA*eT*e[5mC]*eT*e[5mC]) [compound 272341]”, the “% INHIB” value is reported as 65%. In the case of “272315 (antisense e[5mC]*eA*eA*eT*eG*dA*dG*dT*dA*d[5mC]*dA*d[5mC]*dT*dG*dG*eA*eA*e[5mC]*eT*eG) [compound 272315]”, the “% INHIB” value is reported as 53%. With “272306 (antisense eT*eT*eA*eG*eA*dA*dG*dA*dA*dT*dT*dT*dG*dT*d[5mC]*eT*eT*eT*eA*eG) [compound 272306]” the “% INHIB” value was 13%. In the case of “272332 (antisense e[5mC]*eT*e[5mC]*eT*eT*dT*dG*dT*d[5mC]*dA*dG*dG*d[5mC]*dA*dA*eG*eG*eG*e[5mC]*eA) [compound 272332]”, the “% INHIB” value is reported as 75%. For “272311 (antisense eT*eT*eG*e[5mC]*eA*d[5mC]*dT*dA*dT*dT*dT*d[5mC]*dA*dT*d[5mC]*eA*eA*e[5mC]*eA*eG) [compound 272311]”, the “% INHIB” value was 47%. In the case of “227482 (antisense eT*eT*e[5mC]*eT*eG*dT*dG*dG*dT*dG*dA*dT*dG*dT*dA*eA*eA*eT*eG*eT) [compound 227482]”, the “% INHIB” value is reported as 53%. For “272309 (antisense eT*eA*eA*e[5mC]*eA*dG*d[5mC]*dT*dG*dT*dT*dT*dT*d[5mC]*d[5mC]*e[5mC]*e[5mC]*eA*eG*e[5mC]) [compound 272309]”, the “% INHIB” value was 85%. For “227500 (antisense e[5mC]*eA*eT*eA*eG*d[5mC]*dA*dG*d[5mC]*dA*dA*dA*dG*dT*dA*eG*e[5mC]*eA*eG*eA) [compound 227500]”, the “% INHIB” value was 69%.
